The source of these data is a melting point compilation (Tetko et al.).

As a reminder, the melting point is the temperature, or range, at which the solid turns liquid.

Residues, ends and D or L forms follow the SMILES beside them. *: point of attachment. Boc = CC(C)(C)OC(=O)*; Bn = c1ccc(C*)cc1 Some results are limits rather than exact numbers.

`CCOP(=O)(OCC)Oc1ccc([N+](=O)[O-])cc1`: the melting point lay within 35 to 38 °C. Consider `COC(=O)C(C)(C)NC(=O)Nc1ccc(Cl)cc1`, for which the melting point lay within 135 to 136 °C. Regarding `CC(=O)N1C(C)(C)CC(OC(=O)C(Cc2cc(C)c(O)c(C(C)(C)C)c2)(Cc2cc(C)c(O)c(C(C)(C)C)c2)C(=O)OC2CC(C)(C)N(C(C)=O)C(C)(C)C2)CC1(C)C`, the melting point stood at 189 °C. `OP(=S)(C(F)(F)C(F)(F)C(F)(F)C(F)(F)C(F)(F)C(F)(F)C(F)(C(F)(F)F)C(F)(F)F)C(F)(F)C(F)(F)C(F)(F)C(F)(F)C(F)(F)C(F)(F)C(F)(C(F)(F)F)C(F)(F)F` showed a melting point above 300 °C. For `CC(=O)c1cc2cc(Br)ccc2oc1=O`, the melting point was determined as 227 °C. Turning to `Cc1ccc(S(=O)(=O)N2CCN(S(=O)(=O)c3ccc(C)cc3)CCN(S(=O)(=O)c3ccc(C)cc3)CC(CC(C)C)N(S(=O)(=O)c3ccc(C)cc3)CCN(S(=O)(=O)c3ccc(C)cc3)CC2)cc1` (stereo not drawn), the melting point fell in the range of 142 to 145 °C.

With `COc1cc([N+](=O)[O-])cc(C(=O)C2CCCN(C(=O)c3cc([N+](=O)[O-])cc(OC)c3OC)NNN(C(=O)c3cc([N+](=O)[O-])cc(OC)c3OC)CCCC(C(=O)c3cc([N+](=O)[O-])cc(OC)c3OC)CC2)c1OC` (stereo not drawn), the melting point fell in the range of 232 to 235 °C.

In the case of `CC1(C)CC(OC(=O)C(CCCCCCC(Cc2ccccc2)(C(=O)OC2CC(C)(C)NC(C)(C)C2)C(=O)OC2CC(C)(C)NC(C)(C)C2)(Cc2ccccc2)C(=O)OC2CC(C)(C)NC(C)(C)C2)CC(C)(C)N1`, the melting point was 129 to 130 °C.

`CC(=O)OCC(CNC(=O)c1c(I)c(NC(=O)C2CCCO2)c(I)c(C(=O)NCC(COC(C)=O)OC(C)=O)c1I)OC(C)=O` (stereo not drawn): the melting point lay within 101 to 104 °C. Then `CC(C)[C@H](NC(=O)N(C)Cc1ccccn1)C(=O)N[C@@H](Cc1ccccc1)C[C@H](OC(=O)CN(C)C)[C@H](Cc1ccccc1)NC(=O)[C@@H](NC(=O)N(C)Cc1ccccn1)C(C)C`, with 109 to 111 °C; and `CCC(Cc1c(I)cc(I)c(NC(=O)CN2CCN(CC(=O)O)CCN(CC(=O)O)CCN(CC(=O)O)CC2)c1I)C(=O)O` (stereo not drawn), with 230 °C; and `CC(=O)OC(COc1ccc(C(C)(C)c2ccc(OCC(CN3C(=O)NC4(CC(C)(C)N(C(C)=O)C(C)(C)C4)C3=O)OC(C)=O)cc2)cc1)CN1C(=O)NC2(CC(C)(C)N(C(C)=O)C(C)(C)C2)C1=O` (stereo not drawn), with 147 to 149 °C.

`Oc1c(Br)c(Br)c(-c2c(Br)c(Br)c(O)c(Br)c2Br)c(Br)c1Br` yielded a melting point of 282 °C. In the case of `CCCCCCCC/C=C\CCCCCCCCNC(=O)OCCCCCCCCCCCCNC(=O)OC1CCN(C(=O)Oc2ccc(Oc3ccccc3)cc2)CC1`, the melting point lay within 83 to 84 °C.

`CCCCCCCCCCCCCCCC(=O)OCC(CSCC(NC(=O)OCc1cccc2c1Cc1ccccc1-2)C(=O)OC(C)(C)C)OC(=O)CCCCCCCCCCCCCCC` (mixture of isomers): the melting point is 52 to 54 °C. In turn, `CCNC(Cc1cc(I)c(Oc2cc(I)c(O)c(I)c2)c(I)c1)C(=O)O` (stereo not drawn) returned a melting point of 191 to 193 °C. As to `O=S(=O)(C(/C=C/c1ccc(I)cc1)c1ccc(Br)cc1)C(/C=C/c1ccc(I)cc1)c1ccc(Br)cc1` (stereo not drawn), the melting point fell in the range of 201 to 203 °C. Consider `CC(C)C(NC(=O)N(C)Cc1ccccn1)C(=O)NC(Cc1ccccc1)C(O)C(O)C(Cc1ccccc1)NC(=O)C(NC(=O)N(C)Cc1nccs1)C(C)C` (stereo not drawn), for which the melting point is 96 to 97 °C. Compound `CC1(C)CC(C(O)CNc2nc(NCc3ccc(CNc4nc(NCC(O)C5CC(C)(C)NC(C)(C)C5)nc(NCC(O)C5CC(C)(C)NC(C)(C)C5)n4)cc3)nc(NCC(O)C3CC(C)(C)NC(C)(C)C3)n2)CC(C)(C)N1` (stereo not drawn) displayed a melting point of 151 to 156 °C. `CC(=O)OCC1OC(n2cc(C3=C(c4cn(S(=O)(=O)c5ccccc5)c5ncccc45)C(=O)N(COCc4ccccc4)C3=O)c3cccnc32)C(OC(C)=O)C(OC(C)=O)C1OC(C)=O` (stereo not drawn) gave a melting point of 108 to 110 °C. `CC(=O)OCC(CNC(=O)c1c(I)c(C(=O)NCC(COC(C)=O)OC(C)=O)c(I)c(N2CCCCC2=O)c1I)OC(C)=O` (stereo not drawn) registered a melting point of 130 to 134 °C. To `COC(=O)C(C)NC(=O)C(COCc1ccccc1)NC(=O)C(Cc1ccc(OCc2ccccc2)cc1)NC(=O)C(Cc1c[nH]c2ccccc12)NC(=O)OC(C)(C)C` (stereo not drawn) (Boc-WY(Bn)S(Bn)A-OMe; configuration not given here) belongs 178 to 182 °C; to `CC(C)[C@H](NC(=O)N(C)CCc1ccccn1)C(=O)N[C@@H](Cc1ccccc1)[C@H](O)[C@@H](O)[C@H](Cc1ccccc1)NC(=O)[C@@H](NC(=O)N(C)CCc1ccccn1)C(C)C`, 109 to 111 °C; to `CC(C)[C@H](NC(=O)N(C)Cc1csc(NC(=O)OC(C)(C)C)n1)C(=O)N[C@@H](Cc1ccccc1)[C@H](O)[C@@H](O)[C@H](Cc1ccccc1)NC(=O)[C@@H](NC(=O)N(C)Cc1csc(NC(=O)OC(C)(C)C)n1)C(C)C`, 138 to 140 °C. `O=C(O)Cc1cc(I)c(Oc2cc(I)c(OCC3CO3)c(I)c2)c(I)c1` (stereo not drawn) came in with a melting point of 176 °C. Consider `CCCCCCC1(CCCCCC)c2cc(Br)ccc2-c2ccc(-c3ccc(-c4ccc5c(c4)C(CCCCCC)(CCCCCC)c4cc(Br)ccc4-5)c4snnc34)cc21`, for which the melting point was 188 to 190 °C. In turn, `Cn1cncc1C(O)(c1ccoc1)c1ccc2c(c1)c(-c1cccc(Cl)c1)cc1nnnn12` (stereo not drawn) displayed a melting point of 188 °C.

Compound `Cc1ccc2c(c1)CC(=O)N2c1c(F)cc(F)cc1Cl` showed a melting point of 137 to 140 °C.

Compound `CCCCN(CCCC)c1ccc(C=Cc2ccc(C=CC3=C(C#N)C(=C(C#N)C#N)OC3(C)C(F)(F)F)s2)c(O[Si](c2ccccc2)(c2ccccc2)C(C)(C)C)c1` (stereo not drawn) came in with a melting point of 186 to 187 °C. The compound `CCCCCCCCCCCCCCCC(=O)C(O)C(O)(C(=O)c1cccc(NC(=O)C(CSC(C)=O)Cc2ccccc2)c1)C(O)C(=O)CCCCCCCCCCCCCCC` (stereo not drawn) came in with a melting point of 65 to 67 °C. To `COC1C(=O)C2(C)C(OC)CC3OCC3(OC(C)=O)C2C(OC(=O)c2ccccc2)C2(O)CC(OC(=O)C(O)C(NC(=O)OC(C)(C)C)c3ccccc3)C(C)=C1C2(C)C` (stereo not drawn) belongs 125 to 145 °C; to `N=S(=O)(C=Cc1ccccc1N)c1ccccc1` (stereo not drawn), 95 to 96 °C. Then `CC(CCOc1c(I)cc(I)cc1I)Oc1c(I)cc(I)cc1I` (stereo not drawn), with 173 to 175 °C. The compound `CC(C)(C)OC(=O)NCc1ccc(CNC(=O)N2CCN(C(=O)CN3CCC(=O)N(CC(=O)N4CCN(C(=O)NCc5ccc(CNC(=O)OC(C)(C)C)cc5)CC4)CCC3=O)CC2)cc1` yielded a melting point of 156 to 160 °C. `CC(C)(C)c1cc(Cc2cc(C(C)(C)C)cc(C(C)(C)C)c2Op2oc3c(C(C)(C)C)cc(C(C)(C)C)cc3c3cc(C(C)(C)C)cc(C(C)(C)C)c3o2)c(O)c(C(C)(C)C)c1`: the melting point lay in the range of 195 to 205 °C. For `CCCCCCCCCCCCSc1cc(SCCCCCCCCCCCC)c2ccc3c(SCCCCCCCCCCCC)cc(SCCCCCCCCCCCC)c4ccc1c2c43`, the melting point was found to be 110 °C.

`O=C(c1ccc(I)cc1)c1cc2c3c(c1)C(c1cccc(Cl)c1)CC(=O)N3CC2` (stereo not drawn) displayed a melting point of 275 °C. To `CCCCCCCCCCCCc1cc2c(cc1CCCCCCCCCCCC)C(=O)c1c(c(O)c3cc(CCCCCCCCCCCC)c(CCCCCCCCCCCC)cc3c1O)C2=O` belongs 66 to 76 °C.
